For series [1], the system named is HCMV Towne entry into HFFs. Description: HCMV entry, indirect immunofluorescence assay for pp65. The following applies: pretreatment 24 h: MLS8969 3 μM, Heparin 30 μM, GCV 5 μM; IFA 2 hpi. It counts as cell-based. On the procedure:
HCMV entry and indirect immunofluorescence assay: MLS8969, GCV and heparin control were used to determine inhibition of HCMV entry. Compounds were diluted in serum-free media and added to HFFs seeded on chamber slides 24 h prior to infection. After infection (MOI 1 or 0.1 PFU/cell) for 2 h, cells were fixed with 100% chilled methanol, blocked for 1 h with phosphate-buffered saline (PBS), 5% serum, 0.3% Triton X-100. Cells were then incubated with mouse monoclonal anti-pp65 antibody, 1:50 (Vector Laboratories, Burlingame, CA) at 37° C. in humidified chambers for 1 h, washed three times with TBST (0.1%), incubated with rhodamine-conjugated anti-mouse IgG, 1:500 (Sigma) at 37° C. in humidified chambers for 1 h and washed with TBST (0.1%). A drop of mount oil containing DAPI (Santa Cruz Biotechnology, Santa Cruz, CA) was added to the slides before visualization with a Zeiss ZI fluorescence microscope. Images were captured at 40× magnification.

The test system of another series is HCMV TB40. Briefly: Drug combination with letermovir, plaque assay TB40, Bliss model. It counts as cell-based, human cytomegalovirus. Particulars: Human betaherpesvirus 5, read-out: EC50 of Compound 1 (Letermovir). On the procedure: (§1) Drug combination and analysis: These experiments were performed as previously reported^40. The combination of GCV and each compound was tested using the pp28-luciferase. Briefly, 2×10^6 HFFs/plate were seeded in 96-well plates and infected with the pp28-luciferase Towne HCMV strain (MOI=1). First, a dose response curve was generated for each drug individually to determine its EC50. Then, drugs were combined at twice their EC50, diluted in DMEM with 4% FBS, followed by serial dilution and added together after infection. Luciferase activity of the combination and each drug individually was quantified at 72 hpi. The combination of letermovir and each of the new compounds was tested by the plaque assay using TB40. The same principle applied in this assay for the drug combination effect, and plaques were counted at 8 dpi. The Bliss model was used to calculate the effect of each drug combination on pp28-luciferase activity and plaque reduction. In this model, drug combination represents the product of two probabilistically independent events as described in the following equation^41.
(§2) [formula] Where D is the drug concentration, m is the slope, and EC50 is the effective concentration resulting in 50% virus inhibition. The combined effect of two inhibitors (Fu, fractional unaffected) is computed as the product of individual effects of the two inhibitors, Fu1 and Fu2. If the ratio of observed fold inhibition divided by the expected fold inhibition is greater than 1, the compounds are synergistic. If the ratio is less than 1, the combination is considered antagonistic, and if it equals to 1 the combination is additive.
Pattern of drug combination with GCV and letermovir: The effect of each compound alone or in combination with GCV or letermovir was tested in HCMV-infected HFFs. […] A ratio of observed fold inhibition divided by the expected fold inhibition of >1 was considered drug synergy, <1 as drug antagonism, and =1 as additive. For letermovir and its combination with each of the five compounds the EC50 was determined based on plaque assay. The combination of GCV and 2955 was also tested by plaque assay. All other combinations and Bliss coefficients were measured by pp28- luciferase.

The next series is described as follows: in vitro. The following applies: human. On the procedure:
Cytotoxicity assay: MTT assay was performed as described by manufacturer's instructions (Sigma-Aldrich). Non-infected cells were treated with compounds for 72 h or 10 days (same time points of the antiviral assay), and 20 μL/well of MTT [3-(4, 5-Dimethyl-2-thiazolyl)-2, 5-diphenyl-2H-tetrazolium bromide], 5 mg/mL in phosphate buffered saline (PBS)] was added to each well. After shaking at 150 rpm for 5 min the plates were incubated at 37° C. for 2-3 h. Conversion of yellow solution to dark blue formazan by mitochondrial dehydrogenases of living cells was quantified by measuring absorbance at 560 nm.
HCMV inhibition was measured by luciferase activity of pp28-recombinant Towne and pp28 GCV-resistant Towne strains of HCMV (72 hpi) and by plaque reduction using HCMV Towne or TB40 (10 days). Viral protein expression was measured by Western blot.

For series [2], the system named is Mouse CMV (MCMV) Smith strain. Description: Plaque assay, mouse CMV in MEFs. It counts as cell-based, mouse cytomegalovirus. Particulars: Murid betaherpesvirus 1; plaque reduction, MEFs; NA = Not active. The text has this: (§3) Viruses and antiviral assays: A recombinant pp28-luciferase Towne HCMV strain expressing luciferase under the control of the UL99 (pp28) late promoter was reported to provide a highly-sensitive and reproducible reporter for drug screening^20. A GCV-resistant HCMV pp28-luciferase that contains a C607Y mutation in UL97 was reported^37. The HCMV TB40 strain was obtained from ATCC (VR-1578). Clinical isolates of Human Herpesvirus 1 and 2 (HSV1, HSV2) were collected from the Johns Hopkins Microbiology laboratory without identifiers that could link them to a specific patient. Mouse CMV (MCMV) Smith strain (ATCC VR-1399) was used for infection of MEFs.
(§4) Plaque reduction assay: HFFs were seeded into 12-well plates (2×10^5 cells/well) and infected with HCMV TB40 at approximately 100 plaques/well. After 90 min, media were aspirated, and DMEM containing 0.5% carboxymethyl-cellulose (CMC), 4% fetal bovine serum (FBS), and drugs were added into duplicate wells. Following incubation at 37° C. for 10-12 days the overlay was removed, and plaques were counted after crystal violet staining. For HSV1 and HSV2 replication in Vero cells, the adsorption time was 60 min and plaques were counted after 36 h. Plaque assays in MEFs were completed after 3 days.
(§5) Inhibition of other herpesviruses: Inhibition of herpes simplex 1 and 2 (HSV1, HSV2), Epstein Barr virus (EBV) and mouse CMV (MCMV) was tested with the five compounds. Plaque reductions assays were used for HSV1, HSV2 and MCMV. Inhibition of lytic EBV replication was measured by real-time PCR in AKATA cells following IgG induction. Only MLS8554 was active against HSV1, HSV2 and MCMV (Table 2).

A further series has as its system HCMV. Description: Drug combination of GCV and 2955 by plaque assay, Bliss model. It counts as cell-based, human cytomegalovirus. Particulars: Human betaherpesvirus 5; combination experiment with NCGC2955, plaque assay; read-out: EC50 of Compound 1 (GCV). On the procedure:
as §1, with “In this model, drug combination represents the product of two probabilistically independent events as described in the following equation^41.” left out
(§6) Pattern of drug combination with GCV and letermovir: The effect of each compound alone or in combination with GCV or letermovir was tested in HCMV-infected HFFs. […] For letermovir and its combination with each of the five compounds the EC50 was determined based on plaque assay. […] All other combinations and Bliss coefficients were measured by pp28- luciferase.

Another series deals with HSV2 clinical isolate. Description: Plaque reduction assay, HSV2 in Vero cells. It counts as cell-based, Human Herpesvirus 2. The following applies: Human alphaherpesvirus 2, Vero, read-out: EC50—HSV2-C1 (μM).
Description: as §3, §4, §5
(Plaque reduction counts the foci of infection that form in a cell layer.)

The subject of series [3] is pp28-luciferase Towne HCMV. Briefly: Drug combination with GCV, pp28-luciferase Towne, Bliss model. Particulars: Human betaherpesvirus 5, read-out: EC50 of Compound 1 (GCV), pp28-luciferase Towne, MOI=1, 72 hpi; one value per combination experiment. It counts as cell-based, human cytomegalovirus. On the procedure: as §1, §2, §6
The test system of a further series is HSV1 clinical isolate. Briefly: Plaque reduction assay, HSV1 in Vero cells. It counts as cell-based, Human Herpesvirus 1. The following applies: Human alphaherpesvirus 1, Vero, read-out: EC50—HSV1-C1 (μM).
Description: as §3, §4, §5

The test system of the next series is Epstein Barr Virus (EBV). Briefly: Inhibition of lytic EBV replication in Akata cells, real-time PCR of BALF5. It counts as cell-based. The following applies: human gammaherpesvirus 4, IgG induction, real-time PCR at 48 hours, NA = Not active. Here is the method:
Inhibition of lytic Epstein Barr Virus (EBV) replication: Akata cells (0.5×10^6/well of 24-well plate) latently infected with EBV were induced with 100 μg/ml of goat antihuman IgG (Sigma). Compounds and GCV control were added to triplicate wells immediately after the addition of human IgG. Cells were collected 48 hours after lytic induction for DNA quantification. Cellular DNA was purified using Wizard SV Genomic Kit (Promega, Madison, WI). The effect of the compounds on lytic induction of EBV was analyzed by real-time PCR of the EBV DNA polymerase gene, BALF5^38.
as §5

For the compound Heparin, the “inhibition of HCMV entry (pp65 nuclear staining), in words” value in series [1] is listed as “inhibited HCMV entry”.

For `COc1cccc(N2CCN(C3=Nc4c(F)cccc4[C@H](CC(=O)O)N3c3cc(C(F)(F)F)ccc3OC)CC2)c1` [Letermovir, letermovir, reference compound], the EC50 (usually the concentration needed to bring the measured effect to its halfway point) with HCMV TB40 came out at 1.1 nM.

As to `Nc1nc(O)c2ncn(COC(CO)CO)c2n1` [GCV, ganciclovir, reference compound], the CC50 in “in vitro” is above 200000 nM. Moreover, the EC50 in series [2] came out at 960 ± 100 nM; in the series with HCMV, 770 ± 80 nM; in the series with HSV2 clinical isolate, 0.58 µM; in [3], 1330 nM; in the series with HSV1 clinical isolate it was 0.04 µM; in the series on Epstein Barr Virus (EBV) it was 5200 ± 400 nM. Besides, the “inhibition of HCMV entry (pp65 nuclear staining), in words” value in [1] is on record as “did not affect pp65 nuclear staining”.
